This note sets out measurements from PMC8981563 (RSC Advances, 2022).

By EC50 is commonly meant the concentration at which the effect is half-maximal.

The test deals with T1, human GPR120 (Homo sapiens, UniProt Q5NUL3).
T1 sequence (Q5NUL3 1-361): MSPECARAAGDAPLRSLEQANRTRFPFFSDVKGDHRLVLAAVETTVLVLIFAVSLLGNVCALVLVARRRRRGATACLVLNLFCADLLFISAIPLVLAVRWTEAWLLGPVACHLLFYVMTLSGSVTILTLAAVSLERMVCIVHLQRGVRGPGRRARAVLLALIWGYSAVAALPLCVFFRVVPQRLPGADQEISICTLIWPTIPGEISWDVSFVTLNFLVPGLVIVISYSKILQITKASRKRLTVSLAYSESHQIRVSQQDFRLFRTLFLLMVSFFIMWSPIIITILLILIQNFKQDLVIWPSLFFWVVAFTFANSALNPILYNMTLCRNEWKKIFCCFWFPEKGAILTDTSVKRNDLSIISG
Description: Ca2+ influx activity of CHO cells expressing human GPR120. It counts as cell-based.
For the compound `Cc1ccc(-c2ccc(F)cc2COc2ccc(CC3SC(=O)NC3=O)cc2)cc1` (stereo not shown) [Compound 1g, 5-(4-((4-Fluoro-4′-methyl-[1,1′-biphenyl]-2-yl)methoxy)benzyl)thiazolidine-2,4-dione], it took 182 ± 13.2 nM to reach a half-maximal effect (EC50).
As for `Cc1ccc(-c2ccc(F)cc2COc2ccc(CC3SC(=O)NC3=O)c(C)c2)cc1` (stereo not shown) [Compound 2g, 5-(4-((4-Fluoro-4′-methyl-[1,1′-biphenyl]-2-yl)methoxy)-2-methylbenzyl)thiazolidine-2,4-dione], the figure is 134 ± 11.8 nM; as for `COc1cc(OCc2cc(F)ccc2-c2ccc(C)cc2)ccc1CC1SC(=O)NC1=O` (stereo not shown) [Compound 3g, 5-(4-((4-Fluoro-4′-methyl-[1,1′-biphenyl]-2-yl)methoxy)-2-methoxybenzyl)thiazolidine-2,4-dione], 122 ± 13.1 nM.
The compound `Cc1ccc(-c2ccc(F)cc2COc2ccc(CC3SC(=O)NC3=O)cc2C)cc1` (stereo not shown) [Compound 6g, 5-(4-((4-Fluoro-4′-methyl-[1,1′-biphenyl]-2-yl)methoxy)-3-methylbenzyl)thiazolidine-2,4-dione] displayed an EC50 of 461 ± 36.1 nM.
Regarding `Cc1ccc(-c2ccc(F)cc2COc2ccc(CC3SC(=O)NC3=O)cc2F)cc1` (stereo not shown) [Compound 7g, 5-(3-Fluoro-4-((4-fluoro-4′-methyl-[1,1′-biphenyl]-2-yl)methoxy)benzyl)thiazolidine-2,4-dione], the EC50 was found to be 276 ± 20.5 nM.
Then `Cc1ccc(-c2ccc(F)cc2COc2ccc(CC3SC(=O)NC3=O)c(F)c2F)cc1` (stereo not shown) [Compound 8g, 5-(2,3-Difluoro-4-((4-fluoro-4′-methyl-[1,1′-biphenyl]-2-yl)methoxy)benzyl)thiazolidine-2,4-dione], with 142 ± 12.5 nM; and `Cc1ccc(-c2ccc(F)cc2COc2cc(F)c(CC3SC(=O)NC3=O)c(F)c2)cc1` (stereo not shown) [Compound 9g, 5-(2,6-Difluoro-4-((4-fluoro-4′-methyl-[1,1′-biphenyl]-2-yl)methoxy)benzyl)thiazolidine-2,4-dione], with 137 ± 16.3 nM.
